Patent US9920383B2, “Active substances for increasing the stress defense in plants to abiotic stress, and methods of finding them” (Bayer Intellectual Property GMBH, priority 2005, dated 2018)

Experiments:
Format in all cases: in vivo, maize cv. Lorenzo
[1] = tested on: Zm.3040.1.S1_at uricase II (E.C.1.7.3.3); nodule specific uricase; test: Gene expression profiling (maize genome array), heat stress; settings: vs unstressed solvent-dressed control
Experimental: (§1) Maize seeds cv. Lorenzo were dressed as described in example 1 with the compound VIII-3 (=4-cyclopropylaminocarbonyl-N-(2-methoxybenzoyl)benzenesulfonamide) or with solvent. The plants were raised for 10 days in a controlled-environment chamber (conditions: see example 1).
(§2) Thereafter, the plants were exposed to the following stress conditions: • (1) Heat stress: 6 h at 45° C. • (2) Drought stress: 7 days without irrigation, 24° C.
(§3) The control plants of the specific experimental group were kept under the standard conditions described in example 1 (temperature, irrigation).
(§4) After the stress treatment, the leaves of the stressed plants and of the unstressed control plants were harvested, shock-frozen in liquid nitrogen and stored at −80° C. until processed. All experiments were carried out in replications of in each case 2 pots.
(§5) The labeled RNA probes for the DNA chip hybridization were prepared as described in the protocols (Expression Analysis. Technical Manual) from Affymetrix (Affymetrix Inc., 3380 Central Expressway, Santa Clara, Calif., USA). First, total RNA was isolated from in each case 500 mg of the harvested leaves. In each case 10 μg of total RNA were used for the cDNA first- and second-strand synthesis. The cDNA was amplified with T7 polymerase and simultaneously labeled with biotin-UTP. In each case 20 μg of this biotinylated […] were employed for the hybridization of the maize genome array from Affymetrix. This DNA microarray contains DNA sequences whose totality represents 13339 genes. Thereafter, the DNA microarrays were washed in the Affymetrix Fluidics Station, stained with streptavidin/phycoerythrin (Molecular Probes, P/N S-866) and scanned with the appropriate Agilent Laser Scanner (Agilent Gene Array Scanner). The fluorescence data obtained were analyzed using Affymetrix's Microarray Suite 5 software. After the quality assurance had been performed, all DNA chip analyses were stored in a database. To determine relevant expression values (induction factors, repression factors), the absolute expression values of the genes from the respective stress experiments were compared with the values of the respective control experiments (i.e. without abiotic stress and solvent-dressing only), based on the scoring function predetermined by the Affymetrix software. The resulting 4 expression values per gene were averaged by calculating the median value. These median values are shown in the results tables as induction factors. Similarity comparisons of expression profiles of various experiments and cluster analyses were carried out using the “genedata expressionist” software from Genedata (Genedata, Maulbeerstr. 46, CH-4016 Basel, Switzerland).
(§6) The analysis of the expression profiles specifically searched for genes which are induced by the test substances only in conjunction with abiotic stress, but not by the substances or by stress alone. Such genes can be considered as indicators for additional anti-stress effects of the substances which exceed the known safener effect. The induction patterns of the indicator genes described permit the targeted finding of active substances for increasing the abiotic stress tolerance in crop plants. • a) Under heat stress conditions, i.e. the tested maize plants (dressed with 2 mg a.i. 4-cyclopropylaminocarbonyl-N-(2-methoxybenzoyl)benzenesulfonamide/g seeds) were exposed to a temperature of 45° C. for 6 hours 7 days after germination.
(§7) • Condition A: heat stress (6 hours, 45° C.) • Condition B: Seeds dressed with 4-cyclopropylaminocarbonyl-N-(2-methoxybenzoyl)benzenesulfonamide (VIII-3)/NO heat stress • Condition C: Seeds dressed with 4-cyclopropylaminocarbonyl-N-(2-methoxybenzoyl)benzenesulfonamide (VIII-3)+heat stress (6 hours, 45° C.).

[2] = tested on: Zm.11840.1.A1_at: putative N-carbamyl-L-amino acid amidohydrolase; test: as above; settings: vs unstressed solvent-dressed control
Experimental: as §1, §2, §3, §4, §5, §6, §7

[3] = tested on: Zm18994.2.A1_at: putative serine transferase; test: as above; settings: vs unstressed solvent-dressed control
Experimental: as §1, §2, §3, §4, §5, §6, §7

[4] = tested on: Zm.4274.1.S1_at: cytochrome P450; test: as above; settings: vs unstressed solvent-dressed control
Experimental: as §1, §2, §3, §4, §5, §6, §7

[5] = tested on: Zm.13498.1.S1_at: membrane protein; test: as above; settings: vs unstressed solvent-dressed control
Experimental: as §1, §2, §3, §4, §5, §6, §7

[6] = tested on: Zm12587.1.S1.s_at: glycosyltransferase; test: as above; settings: vs unstressed solvent-dressed control
Experimental: as §1, §2, §3, §4, §5, §6, §7

maize plants = test: Drought stress experiment with maize plants, seed dressing with active substance; settings: for Relative dry matter [%]: relative to control group 2 (−S/−D)
Experimental: Maize seeds cv. Lorenzo were dressed with the compound 4-cyclopropylamino-carbonyl-N-(2-methoxybenzoyl)benzenesulfonamide (=VIII-3). To this end, 10 g of seeds were incubated with 20 mg of active substance dissolved in 2 ml of methylene chloride, with gentle shaking, until the solvent had evaporated (approx. 30 minutes). The seeds of the control group were only dressed with solvent. Thereafter, the treated seeds were placed into pots with compost (diameter 10 cm, in each case 10 seeds per pot), and the maize seedlings were raised for 10 days in a controlled-environment chamber under defined light, moisture and temperature conditions [white light, long day (16 hours light, 8 hours dark), 70% atmospheric humidity, 24° C.]. In each case 2×10 pots were used for the control groups and for the drought stress experiment. While the plants were raised, they were watered from below for 20 minutes every 2 days by raising the water level in a tray. 10 days after the seeds had germinated, the maize plants were exposed to the drought stress. To this end, the plants of control group 1 (without dressing with active substance) and of the test group (with dressing with active substance) were only irrigated every 7 days as described above. In the case of the plants of control group 2 (without dressing with active substance) and of the test group 2 (with dressing with active substance), the normal irrigation regime was reclaimed. After 3 weeks of drought stress conditions, the experiment was evaluated as follows. The aerial plant parts were cut off and dried overnight at 50° C. On the next day, the foliar biomass was determined in [g] (dry matter) per pot.
The data were averaged over the in each case 10 pots of the plant group. The numerical values shown in table 1 are relative values in [%] relative to the data obtained with the control group 2 (without dressing with active substance, normal irrigation regime).

[7] = seeds dressed with VIII-3 (2 mg a.i./g seeds), NO heat stress
[8] = seeds dressed with VIII-3 + heat stress (6 hours, 45° C.)

For COc1ccccc1C(=O)NS(=O)(=O)c1ccc(C(=O)NC2CC2)cc1 [VIII-3, 4-cyclopropylaminocarbonyl-N-(2-methoxybenzoyl)benzenesulfonamide], the “induction factor Zm.3040.1.S1_at, Condition B” value [1, 7] was 1.33, the “induction factor Zm.3040.1.S1_at, Condition C” value [1, 8] was 2.48 and the “induction factor Zm.11840.1.A1_at, Condition B” value [2, 7] was 1.75. For the same molecule, the “induction factor Zm.11840.1.A1_at, Condition C” value [2, 8] was 4.10, the “induction factor Zm18994.2.A1_at, Condition B” value [3, 7] was 1.46 and the “induction factor Zm18994.2.A1_at, Condition C” value [3, 8] was 2.66. The “induction factor Zm.4274.1.S1_at, Condition B” value [4, 7] was 1.22, the “induction factor Zm.4274.1.S1_at, Condition C” value [4, 8] was 1.93 and the “induction factor Zm.13498.1.S1_at, Condition B” value [5, 7] was 1.73. The “induction factor Zm.13498.1.S1_at, Condition C” value [5, 8] was 4.45, the “induction factor Zm12587.1.S1.s_at, Condition B” value [6, 7] was 1.45 and the “induction factor Zm12587.1.S1.s_at, Condition C” value [6, 8] was 2.33. The “Relative dry matter [%]” value (maize plants; +S/+D: seeds dressed (20 mg per 10 g seeds), 3 weeks drought stress) was 80%, the “Relative dry matter [%]” value (maize plants; +S/−D: seeds dressed, normal irrigation (no drought stress)) was 100% and the “average foliar biomass (dry matter) over the undressed control plant” value (maize plants; under drought stress (control group 1 vs test group 1)) was “significantly increased”.
